The subject of one data set is KG-1 cancer cells. In words: Cytotoxicity assay (WST-1), KG-1 cells. Type of data set: cell-based. The conditions noted are these: Homo sapiens, 72 hours. The procedure:
Cancer cells (KG-1) were seeded at a density of 10,000 cells per well in 96-well plates. The compound of the present disclosure and control compounds (Comparative Compounds 1, 2, and 3) were treated at predetermined concentrations. After 72 hours, the cells were treated with WST-1 reagent for 1 hour. Then, absorbance was read at 450 nm using a SpectraMax spectrophotometer to determine cell viability.
In general terms: Tetrazolium assays rely on reduction of a dye to a coloured formazan, in cell work by metabolically active cells.

Data set [1] relates to NCI-H1155 (lung cancer cells). Kind of data set: CytoX cell viability assay, NCI-H1155 cells. The conditions noted are these: 72 hours; for viability at 0.01 µM / viability at 0.5 µM: Homo sapiens. Type of data set: cell-based. The procedure:
The viability of NCI-H1155 (lung cancer cells) was measured using the CytoX cell viability assay kit (LPS Solution, #CYT3000). NCI-H1155 cells were seeded in a 12-well plate, and each compound of the present disclosure and a comparative compound (CC-90009) were treated at 10 nM and 500 nM concentrations for 72 hours. CytoX solution was then added to the cells and incubated for 1 hour.

Each structure is given as a SMILES string.

As usually defined, the IC50 is the concentration that gives 50% inhibition. The molecule `O=C1CCC(N2Cc3cc(CNC(=O)c4cc5ccccc5cn4)ccc3C2=O)C(=O)N1` (stereo not shown) [compound 1, N-((2-(2,6-dioxopiperidin-3-yl)-1-oxoisoindolin-5-yl)methyl)isoquinoline-3-carboxamide, reference compound] came in with an IC50 in the data set with KG-1 cancer cells above 10000 nM.
In general, viability refers to the share of living cells, or the viability signal relative to a control. Read a low viability as a greater loss of cells. Regarding `O=C1CCC(N2Cc3cc(CNC(=O)c4cc(-c5ccc(F)cc5)nc5ccccc45)ccc3C2=O)C(=O)N1` (stereo not shown) [Cpd. 14, N-((2-(2,6-dioxopiperidin-3-yl)-1-oxoisoindolin-5-yl)methyl)-2-(4-fluorophenyl)quinoline-4-carboxamide], the viability at 0.01 µM in data set [1] (10 nM) was determined as 33%. Moreover, the viability at 0.5 µM in data set [1] (500 nM) was 23%.
With `O=C1CCC(N2Cc3cc(CNC(=O)c4ccnc5ccccc45)ccc3C2=O)C(=O)N1` (stereo not shown) [Cpd. 9, N-((2-(2,6-dioxopiperidin-3-yl)-1-oxoisoindolin-5-yl)methyl)quinoline-4-carboxamide], the viability at 0.01 µM in data set [1] (10 nM) is 88%. The viability at 0.5 µM in data set [1] (500 nM) was found to be 25%.
Molecule `O=C1CCC(N2Cc3cc(CNC(=O)c4cc(-c5ccncc5)nc5ccccc45)ccc3C2=O)C(=O)N1` (stereo not shown) [Cpd. 7, N-((2-(2,6-dioxopiperidin-3-yl)-1-oxoisoindolin-5-yl)methyl)-2-(pyridin-4-yl)quinoline-4-carboxamide] registered a viability at 0.01 µM in data set [1] (10 nM) of 50%. The same molecule showed a viability at 0.5 µM in data set [1] (500 nM) of 5%.
The molecule `O=C1CCC(N2Cc3cc(CNC(=O)c4cnc5ccccc5n4)ccc3C2=O)C(=O)N1` (stereo not shown) [compound 2, N-((2-(2,6-dioxopiperidin-3-yl)-1-oxoisoindolin-5-yl)methyl)quinolxaline-2-carboxamide, reference compound] had an IC50 in the data set with KG-1 cancer cells above 10000 nM.
For the molecule `Cc1c(-c2ccccc2)nc2ccccc2c1C(=O)NCc1ccc2c(c1)CN(C1CCC(=O)NC1=O)C2=O` (stereo not shown) [Cpd. 12, N-((2-(2,6-dioxopiperidin-3-yl)-1-oxoisoindolin-5-yl)methyl)-3-methyl-2-phenylquinoline-4-carboxamide], the viability at 0.01 µM in data set [1] (10 nM) was determined as 59%. Also, in data set [1] (500 nM), the viability at 0.5 µM came to 24%.
Molecule `O=C1CCC(N2Cc3cc(CNC(=O)c4cc(Cl)nc5ccccc45)ccc3C2=O)C(=O)N1` (stereo not shown) [Cpd. 8, 2-chloro-N-((2-(2,6-dioxopiperidin-3-yl)-1-oxoisoindolin-5-yl)methyl)quinoline-4-carboxamide] yielded a viability at 0.01 µM in data set [1] (10 nM) of 86%. This molecule showed a viability at 0.5 µM in data set [1] (500 nM) of 23%.
Take `CC(C)c1ccc(-c2cc(C(=O)NCc3ccc4c(c3)CN(C3CCC(=O)NC3=O)C4=O)c3ccccc3n2)cc1` (stereo not shown) [Cpd. 2, N-((2-(2,6-dioxopiperidin-3-yl)-1-oxoisoindolin-5-yl)methyl)-2-(4-isopropylphenyl)quinoline-4-carboxamide]: the IC50 in the data set on KG-1 cancer cells was determined as 1.5 nM.
In the data set with KG-1 cancer cells, `Cc1ccc2nc(-c3ccccc3)cc(C(=O)NCc3ccc4c(c3)CN(C3CCC(=O)NC3=O)C4=O)c2c1` (stereo not shown) [Cpd. 3, N-((2-(2,6-dioxopiperidin-3-yl)-1-oxoisoindolin-5-yl)methyl)-6-methyl-2-phenylquinoline-4-carboxamide] registered an IC50 of 14 nM.
In data set [1] (10 nM), `Cc1ccccc1-c1cc(C(=O)NCc2ccc3c(c2)CN(C2CCC(=O)NC2=O)C3=O)c2ccccc2n1` (stereo not shown) [Cpd. 13, N-((2-(2,6-dioxopiperidin-3-yl)-1-oxoisoindolin-5-yl)methyl)-2-(o-tolyl)quinoline-4-carboxamide] registered a viability at 0.01 µM of 32%. For the same molecule, in data set [1] (500 nM), the viability at 0.5 µM is 26%.
As to `Cc1cccc2c(C(=O)NCc3ccc4c(c3)CN(C3CCC(=O)NC3=O)C4=O)cc(-c3cccnc3)nc12` (stereo not shown) [Cpd. 10, N-((2-(2,6-dioxopiperidin-3-yl)-1-oxoisoindolin-5-yl)methyl)-8-methyl-2-(pyridin-3-yl)quinoline-4-carboxamide], in data set [1] (10 nM), the viability at 0.01 µM is 3%. Besides, the viability at 0.5 µM in data set [1] (500 nM) turned out to be 4%.
In turn, `O=C1CCC(N2Cc3cc(CNC(=O)c4cc(-c5ccccc5F)nc5ccccc45)ccc3C2=O)C(=O)N1` (stereo not shown) [Cpd. 15, N-((2-(2,6-dioxopiperidin-3-yl)-1-oxoisoindolin-5-yl)methyl)-2-(2-fluorophenyl)quinoline-4-carboxamide] had a viability at 0.01 µM in data set [1] (10 nM) of 31%. The same molecule yielded a viability at 0.5 µM in data set [1] (500 nM) of 26%.
In turn, `O=C1CCC(N2Cc3cc(CNC(=O)c4cc(-c5ccccc5)nc5ccccc45)ccc3C2=O)C(=O)N1` (stereo not shown) [Cpd. 1, N-((2-(2,6-dioxopiperidin-3-yl)-1-oxoisoindolin-5-yl)methyl)-2-phenylquinoline-4-carboxamide] registered an IC50 with KG-1 cancer cells of 0.8 nM.
In the case of `O=C1CCC(N2Cc3cc(CNC(=O)c4ccc5cc(Cl)ccc5n4)ccc3C2=O)C(=O)N1` (stereo not shown) [compound 3, 6-chloro-N-((2-(2,6-dioxopiperidin-3-yl)-1-oxoisoindolin-5-yl)methyl)quinoline-2-carboxamide, reference compound], 4100 nM corresponded to half-maximal inhibition with KG-1 cancer cells (IC50).
Take `Cc1cccc2c(C(=O)NCc3ccc4c(c3)CN(C3CCC(=O)NC3=O)C4=O)cc(-c3ccccc3)nc12` (stereo not shown) [Cpd. 4, N-((2-(2,6-dioxopiperidin-3-yl)-1-oxoisoindolin-5-yl)methyl)-8-methyl-2-phenylquinoline-4-carboxamide]: 1 nM corresponded to half-maximal inhibition with KG-1 cancer cells (IC50).
Turning to `O=C1CCC(N2Cc3cc(CNC(=O)C(F)(F)c4ccc(Cl)cc4)ccc3C2=O)C(=O)N1` (stereo not shown) [CC-90009, reference compound], in data set [1] (10 nM), the “NCI-H1155 (% viability) at 10 nM” value came out at 85.0%. Besides, the “NCI-H1155 (% viability) at 500 nM” value in data set [1] (500 nM) amounted to 23.25%.

The record behind these values is patent publication US20260152485A1, “ISOINDOLINONE DERIVATIVE HAVING QUINOLINE AMIDE STRUCTURE, AND USE THEREOF” (ONCORD BIO INC, priority 2022, published 2026).
